Patent US20230271969A1, “NITROGEN-CONTAINING FUSED RING DERIVATIVE INHIBITOR, PREPARATION METHOD THEREFOR AND USE THEREOF” (Shanghai Hansoh Biomedical Co., Ltd., priority 2020, published 2023)
Like-named read-outs stand apart in the source and are kept apart here.

Tests used:
[1] = target: T1, NK3 receptors (Homo sapiens, UniProt P29371); assay: Antagonism of IP1 in HEK293 cells with stable expression of NK3; type: cell-based; details: agonist Senktide 3 nM, read-out: NK3R IC50 (nM) IP1
T1 construct: expressed in transfected cells
T1 sequence (P29371 1-465): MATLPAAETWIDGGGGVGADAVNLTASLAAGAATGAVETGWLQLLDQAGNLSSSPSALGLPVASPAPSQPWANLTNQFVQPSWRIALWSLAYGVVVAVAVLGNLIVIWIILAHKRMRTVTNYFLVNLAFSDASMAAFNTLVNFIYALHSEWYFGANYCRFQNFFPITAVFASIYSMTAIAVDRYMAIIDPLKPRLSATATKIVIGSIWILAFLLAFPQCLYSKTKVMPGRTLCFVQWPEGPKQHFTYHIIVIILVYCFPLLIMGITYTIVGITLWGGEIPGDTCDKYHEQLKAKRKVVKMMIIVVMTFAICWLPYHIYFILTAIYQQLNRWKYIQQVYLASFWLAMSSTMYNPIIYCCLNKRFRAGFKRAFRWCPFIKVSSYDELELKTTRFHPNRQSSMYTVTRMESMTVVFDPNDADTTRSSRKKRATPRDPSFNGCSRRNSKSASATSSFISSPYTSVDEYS
Procedure: Determination of the Effect of the Compounds of the Present Invention on IP1 in HEK293 Cells with Stable Expression of NK3
The objective of this test example was to determine the antagonism effect of the compounds on the activity of HEK293-NK3 cells.
3. Experimental Methods: • 1. […] HEK293-NK3 cell line was cultured in complete medium and seeded in the coated dishes at 37° C., 5% CO2 until 70%˜90% confluence. • 3. […] The cells were digested and resuspended in 1× Stimulation Buffer (IP-ONE Gq Kit), seeded into the 384-well cell culture plate (which contained the compound to be tested) at 5,000 cells/well/5 μL by using Multidrop Combi. The culture plate was centrifuged at 300 rpm at room temperature for 60 seconds, and then incubated at 37° C., 5% CO2 for 15 minutes. • 5. The cell culture plate was taken out from the CO2 incubator. […] The culture plate was centrifuged at 300 rpm at room temperature for 60 seconds, and then incubated at 37° C., 5% CO2 for 2 hours. • 6. The cell culture plate was taken out from the CO2 incubator. 5 μL of IP1 d2 reagent and then 5 μL of IP1 Tb Cryptate Antibody reagent were added by using Multidrop Combi. The culture plate was centrifuged at room temperature at 300 rpm for 60 seconds, and left to stand at room temperature for 1 hour. • 7. The plate was read by using EnVision Multilabel Reader, and data were collected at the same time.
The fluorescence signal ratio (Ratio) was read and collected by EnVision Multilabel Reader. According to the readings of the Low control (DMSO control) and High control (p)ositive compound) experimental groups, the antagonism percentage data were calculated as {% antagonism=(Ratio sample−Ratio low control)/(Ratio high control−Ratio low control)×100}.

[2] = target: T1, NK3 receptors; assay: Calcium ion fluidity (FLIPR) in cells with stable expression of NK3 receptors; type: cell-based; details: calcium signal, antagonist mode, read-out: NK3R IC50 (nM) FLIPR
Text: Determination of the Effect of the Compounds of the Present Invention on Calcium Ion Fluidity in Cells with Stable Expression of NK3 Receptors
Experimental objective: The objective of this test example was to determine the inhibitory effect of the compounds on NK3 receptors.
Experimental Methods: • 1. […] Probenecid and BSA were freshly added on the day of the experiment. The buffers for the experiments included dye buffer, compound dilution buffer and the like. • 2. […] The culture medium was discarded, and 20 μL of dye was added. The cells were incubated at 37° C. in the dark for 60 min, and then the calcium signal was read. • 4. The antagonist was prepared before the experiments. […] The plate was transferred to FLIPR, and 6× concentration of the agonist compound was added at 5 μL/well. The values were read and the data were saved by using FLIPR. The total assay volume was 30 μL, comprising 20 μL/well of dye buffer, 5 μL/well of 5× concentration of the experimental compound, and 5 μL/well of 6× concentration of the agonist compound.
The calcium signal value was read by FLIPR. The output of each sampling time point in the experiment was calculated as the ratio of the signals at wavelengths of 340/510 nm to 380/510 nm. The maximum minus minimum value was calculated from the ratio signal curve. The IC50 value of the compound was calculated by fitting the data of inhibition rate percentage and ten concentrations to the parametric nonlinear logistic equation by using GraphPad prism.

[3] = Pharmacokinetic assay in SD rats (plasma and brain tissue); type: in vivo; details: rat, po, male SD rats, p.o. 5 mg/kg; for AUC(0-t): read-out: Area under curve AUC0-t; for Tmax: read-out: Peak time tmax; for Cmax: read-out: Plasma concentration Cmax
Procedure: Test Example 4. Pharmacokinetic Assays in SD Rats
SD rats were used as test animals. The in vivo (plasma and brain tissue) pharmacokinetic behavior of the compounds of the present invention was investigated by oral administration of the compound in rats at a dose of 5 mg/kg.
Male SD rats (21 animals per group), purchased from Shanghai JieSiJie Laboratory Animal Co., Ltd., under the Animal Production License Number of SCXK (Shanghai) 2013-0006 No. 311620400001794.
The experimental drug was dissolved in 0.5% CMC-Na (1% Tween 80) by sonication to formulate a clear solution or a homogeneous suspension.
After an overnight fast, male SD rats (21 animals per group) were administered p.o. with the experimental drug at an administration dose of 5 mg/kg and the administration volume of 10 mL/kg.
Rats were sacrificed with CO2 at 0, 0.5, 1, 2, 4, 8 and 24 hours before and after the drug administration. 8 mL of blood was collected by cardiac puncture, placed in EDTA-K2 tubes, and centrifuged at 4° C. at 6,000 rpm for 6 min. Plasma was separated and stored at −80° C. The whole brain tissue was dissected and weighed, and then placed in a 2 mL centrifuge tube and stored at −80° C.
2.6 Sample Processing: • 1) 160 μL of acetonitrile was added to 40 μL of plasma sample for precipitation. After mixing, the sample was centrifuged at 3500×g for 5-20 minutes. • 2) 90 μL of acetonitrile containing internal standard (100 ng/mL) was added to 30 μL of plasma or brain homogenate sample for precipitation. After mixing, the sample was centrifuged at 13,000 rpm for 8 minutes. • 3) 70 μL of water was added to 70 μL of treated supernatant, and mixed by vortex for 10 minutes. Then 20 μL of the sample was analyzed by LC/MS/MS to determine the concentration of the compound to be tested. The LC/MS/MS instrument for analysis was AB Sciex API 4000 Qtrap.
2.7 Liquid Chromatography Analysis: • Liquid chromatography conditions: Shimadzu LC-20AD pump • Chromatographic column: Agilent ZORBAX XDB-C18 (50×2.1 mm, 3.5 μm) Mobile phase: Eluent A was 0.1% formic acid in water, and Eluent B was acetonitrile. • Flow rate: 0.4 mL/min • Elution time: 0-4.0 minutes, the eluate was as follows:
The major pharmacokinetic parameters were calculated by using WinNonlin 6.1, and the results of the pharmacokinetic experiments in rats were shown in Table 3 below: […]

[4] = tested on: Senktide-induced bilateral ovariectomy rats; assay: Tail skin temperature in a Senktide-induced bilateral ovariectomy rat model; type: in vivo; details: OVX SD rats, oral 30 mg/kg, 30 min before s.c. Senktide, tail skin temperature over 75 min
Text: Pharmacodynamic Study of the Test Compounds on Tail Skin Temperature in a Senktide-Induced Bilateral Ovariectomy Rat Model
To evaluate the effect of the test compounds on tail skin temperature in Senktide-induced bilateral ovariectomy rats.
2.3. Experimental Animals • Ten-Week-old female bilateral ovariectomy SD rats were purchased from Beijing Vital River Laboratory Animal Technology Co., Ltd. The animals were housed in a SPF grade animal facility with 5 SD rats per cage. The cages, bedding, feed and water were disinfected at high temperatures before use. All animals had free access to food and water.
Ten-week-old female SD rats were subjected to bilateral ovariectomy and recovered for two weeks, and then randomly divided into negative control group, model group and drug administration group (8 rats per group), based on body weight. The probe was attached to the dorsal surface of the rat tail with medical tape, 1-2 cm away from the tailhead of the rat.
The vehicle was administered orally to the negative control group and the model group, and different test compounds were administered orally to each drug administration group at a dose of 30 mg/kg and a volume of 10 mL/kg.
Thirty minutes after the oral administration of the vehicle or test compound, the negative control group was injected subcutaneously with normal saline (at a volume of 5 mL/kg); the model group and each drug administration group were injected subcutaneously with 0.2 mg/mL of Senktide (at a volume of 5 mL/kg) to induce the hot flashes-like symptom.
The change in tail skin temperature (ΔTST) at each time point relative to time point 0 was calculated, the ΔTST-time curve of the change in tail skin temperature was plotted, and the area under curve (AUCΔTST) was calculated. ΔTST=TSTn−TST0, TST0 is the tail skin temperature at 0 minute before the subcutaneous injection of normal saline or Senktide; TSTn is the tail skin temperature at the n minute after the subcutaneous injection.
AUCΔTST=Σ(ΔTSTn+ΔTSTn+5)*5/2

SMILES: C[C@@H]1c2nnc(-c3nc4cc(F)c(F)cc4s3)n2CCN1C(=O)c1ccc(F)cc1 [Example 17, (R)-(3-(5,6-Difluorobenzo[d]thiazol-2-yl)-8-methyl-5,6-dihydro-[1,2,4]triazolo[4,3-a]pyrazin-7(8H)-yl)(4-fluorophenyl)methanone]
- IC50 [1]: 15.2 nM
- IC50 [2]: 6.81 nM
- AUC(0-t) ([3]; Brain): 3230 ng·h/mL
- Tmax ([3]; Brain): 4 h
- Cmax ([3]; Brain): 1120 ng/mL
- AUC(0-t) ([3]; Plasma): 46700 ng·h/mL
- Tmax ([3]; Plasma): 6 h
- Cmax ([3]; Plasma): 2300 ng/mL

SMILES: C[C@@H]1c2nnc(-c3nc4ccccc4s3)n2CCN1C(=O)c1ccc(Cl)cc1 [Example 3, (R)-(3-(Benzo[d]thiazol-2-yl)-8-methyl-5,6-dihydro-[1,2,4]triazolo[4,3-a]pyrazin-7 (8H)-yl)(4-chlorophenyl)methanone]
- AUCΔTST [4]: 81.3 ± 37.4 °C · min
- IC50 [1]: 68.7 nM
- IC50 [2]: 30.5 nM

SMILES: C[C@@H]1c2nnc(-c3nc(Cl)ns3)n2CCN1C(=O)c1ccc(Cl)cc1 [Example 57, (R)-(3-(3-Chloro-1,2,4-thiadiazol-5-yl)-8-methyl-5,6-dihydro-[1,2,4]triazolo[4,3-a]pyrazin-7(8H)-yl)(4-chlorophenyl)methanone]
- IC50 [1]: 28.9 nM
- IC50 [2]: 61 nM
- AUC(0-t) ([3]; Brain): 2340 ng·h/mL
- Tmax ([3]; Brain): 1 h
- Cmax ([3]; Brain): 670 ng/mL
- AUC(0-t) ([3]; Plasma): 7130 ng·h/mL
- half-life ([3]; Plasma, read-out: Half life t1/2 (converted)): 3.2 h
- MRT ([3]; Plasma, read-out: Mean residence time MRT): 4.8 h
- Tmax ([3]; Plasma): 2 h
- Cmax ([3]; Plasma): 930 ng/mL

SMILES: Cc1nsc(-c2nnc3n2CCN(C(=O)c2ccc(F)cc2)[C@@H]3C)n1 [Fezolinetant]
- AUCΔTST [4]: 116.7 ± 50.6 °C · min
- IC50 [2]: 904 nM

SMILES: [2H]c1c([2H])c(C(=O)N2CCn3c(-c4nc5ccccc5s4)nnc3[C@H]2C)c([2H])c([2H])c1F [Example 2, (R)-(3-(Benzo[d]thiazol-2-yl)-8-methyl-5,6-dihydro-[1,2,4]triazolo[4,3-a]pyrazin-7 (8H)-yl)(4-fluorophenyl-2,3,5,6-d4)methanone]
- AUCΔTST [4]: 71.3 ± 25.5 °C · min
- IC50 [1]: 171 nM
- IC50 [2]: 58.2 nM

SMILES: [2H]c1cc(C(=O)N2CCn3c(-c4nc5ccc(Cl)cc5s4)nnc3[C@H]2C)ccc1F [Example 103, (R)-(3-(6-Chlorobenzo[d]thiazol-2-yl)-8-methyl-5,6-dihydro-[1,2,4]triazolo[4,3-a]pyrazin-7(8H)-yl)(4-fluorophenyl-3-d)methanone]
- IC50 [1]: 16 nM
- IC50 [2]: 27.1 nM

SMILES: Cc1cccc2sc(-c3nnc4n3CCN(C(=O)c3ccc(Cl)cc3)[C@@H]4C)nc12 [Example 23, (R)-(4-Chlorophenyl)(8-methyl-3-(4-methylbenzo[d]thiazol-2-yl)-5,6-dihydro-[1,2,4]triazolo[4,3-a]pyrazin-7(8H)-yl)methanone]
- IC50 [1]: 43.6 nM
- IC50 [2]: 97.8 nM
